These results are taken from ChEMBL document CHEMBL1142464, “Synergistic effect of basic residues at positions 14-15 of nociceptin on binding affinity and receptor activation” (Bioorg Med Chem, 2008).

In data set [1] the target is T1, Nociceptin receptor (Rattus norvegicus, UniProt P35370). The experiment in a line: Activation of rat ORL1 receptor expressed in african green monkey COS7 cells by [35S]GTPgammaS binding assay. It counts as functional, cell-based, COS-7.
Data set [2] addresses T1, Nociceptin receptor. The experiment in a line: Displacement of [3H]nociceptin from rat ORL1 receptor expressed in african green monkey COS7 cells. In kind it is cell-based, COS-7.
The nature of data set [3]: Stability in presence of trypsin assessed as half life of compound hydrolysis. In kind it is ADME.
Data set [4] addresses Nociceptin receptor (Rattus norvegicus) (UniProt P35370). The data set is described as follows: Activation of rat ORL1 receptor expressed in african green monkey COS7 cells assessed as stimulation of [35S]GTPgammaS binding relative to nociceptin. It counts as functional, cell-based. The following applies: COS-7.
A short description of data set [5]: Stability in presence of rat brain trypsin assessed compound degradation after 60 mins by HPLC. It counts as ADME. The following applies: read-out: Activity.
Data set [6] in a line: Stability in presence of rat brain trypsin assessed as half life of compound hydrolysis in presence of trypsin inhibitor bacitracin by HPLC. It counts as ADME, tissue-based. The conditions noted are these: isolated protein.
Data set [7] in a line: Stability in presence of rat brain trypsin assessed as half life of compound hydrolysis by HPLC. In kind it is physicochemical.

Where only a bound is given, the exact number is not on record here.

Nociceptin receptor (Rattus norvegicus), sequence (P35370 whole entry): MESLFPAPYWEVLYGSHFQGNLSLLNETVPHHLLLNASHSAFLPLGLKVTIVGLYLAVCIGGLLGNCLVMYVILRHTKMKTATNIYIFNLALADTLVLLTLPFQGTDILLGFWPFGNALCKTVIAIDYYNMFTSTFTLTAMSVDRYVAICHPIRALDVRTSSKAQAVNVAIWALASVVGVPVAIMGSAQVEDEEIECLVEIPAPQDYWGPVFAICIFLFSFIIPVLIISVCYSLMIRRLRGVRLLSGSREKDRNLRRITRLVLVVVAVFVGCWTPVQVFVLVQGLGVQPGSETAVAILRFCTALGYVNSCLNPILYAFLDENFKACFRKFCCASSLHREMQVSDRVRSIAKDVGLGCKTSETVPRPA
T1 sequence (P35370 whole entry): as above

H-FGGFTGARKSARKAANQ-OH came in with an EC50 in data set [1] of 11 nM. The IC50 in data set [2] came out at 1.5 nM.

Molecule H-FGGFTGARKSARKLLNQ-OH displayed an EC50 in data set [1] of 10 nM. In addition, in data set [2], the IC50 was 0.48 nM.

H-FGGFTGARKSARKRKRK-OH showed an EC50 in data set [1] of 2.3 nM. This molecule came in with a half-inhibitory concentration (IC50) in data set [2] of 0.42 nM.

The molecule H-FGGFTGARKSARKKKNQ-OH returned an EC50 in data set [1] of 1.1 nM. In data set [2], the IC50 was 0.16 nM.

H-FGGFTGARKSARKLVNQ-OH returned a concentration giving a half-maximal response (EC50) in data set [1] of 30 nM. Besides, in data set [2], the IC50 stood at 2.2 nM.

Take H-FGGFTGARKSARKLARK-OH: the EC50 in data set [1] worked out at 2.7 nM. The molecule further came in with an IC50 in data set [2] of 0.54 nM.

In the case of `CC(C)C[C@H](NC(=O)[C@H](CCCCN)NC(=O)[C@H](CCCNC(=N)N)NC(=O)[C@H](C)NC(=O)[C@H](CO)NC(=O)[C@H](CCCCN)NC(=O)[C@H](CCCNC(=N)N)NC(=O)[C@H](C)NC(=O)CNC(=O)[C@@H](NC(=O)[C@H](Cc1ccccc1)NC(=O)CNC(=O)CNC(=O)[C@@H](N)Cc1ccccc1)[C@@H](C)O)C(=O)N[C@@H](CCCCN)C(=O)N[C@@H](CC(N)=O)C(=O)N[C@@H](CCC(N)=O)C(=O)O`, the half-life in data set [3] was found to be 20 min. The molecule also gave an EC50 in data set [1] of 5.8 nM. This molecule gave an IC50 in data set [2] of 0.41 nM.

As for `C[C@H](NC(=O)CNC(=O)[C@@H](NC(=O)[C@H](Cc1ccccc1)NC(=O)CNC(=O)CNC(=O)[C@@H](N)Cc1ccccc1)[C@@H](C)O)C(=O)N[C@@H](CCCNC(=N)N)C(=O)N[C@@H](CCCCN)C(=O)N[C@@H](CO)C(=O)N[C@@H](C)C(=O)N[C@@H](CCCNC(=N)N)C(=O)N[C@@H](CCCCN)C(=O)N[C@@H](CCCNC(=N)N)C(=O)N[C@@H](CCCCN)C(=O)N[C@@H](CC(N)=O)C(=O)N[C@@H](CCC(N)=O)C(=O)O`, in data set [4], the Activity was 10%.

As for “H-FGGFTRKRKSARKLANQ-OH [listing 1 of 2 here]”, the Activity in data set [4] came to 60%.

On to H-FGGFTGARKSARKLYNQ-OH, for which a half-maximal response in data set [1] (EC50) required 33 nM. The IC50 in data set [2] was 1 nM.

On to `C[C@H](NC(=O)CNC(=O)[C@@H](NC(=O)[C@H](Cc1ccccc1)NC(=O)CNC(=O)CNC(=O)[C@@H](N)Cc1ccccc1)[C@@H](C)O)C(=O)N[C@@H](CCCN=C(N)N)C(=O)N[C@@H](CCCCN)C(=O)N[C@@H](CO)C(=O)N[C@@H](C)C(=O)N[C@@H](CCCN=C(N)N)C(=O)N[C@@H](CCCCN)C(=O)N[C@@H](Cc1ccc(O)cc1)C(=O)N[C@@H](C)C(=O)N[C@@H](CC(N)=O)C(=O)N[C@@H](CCC(N)=O)C(=O)O`, for which the EC50 in data set [1] is 11 nM. In data set [2], this molecule came in with an IC50 of 1.1 nM.

As to H-FGGFTGARKSARKLFNQ-OH, the response in data set [1] was half-maximal at 12 nM (EC50). This molecule also displayed an IC50 in data set [2] of 1 nM.

The molecule H-FGGFTGARKSARKLWNQ-OH yielded an EC50 in data set [1] of 50 nM. Also, in data set [2], the IC50 amounted to 2.1 nM.

Consider “H-FGGFTGARKRKRKLANQ-OH [listing 1 of 2 here]”, for which the Activity in data set [4] was more than 90%.

For `CC(C)C[C@H](NC(=O)[C@H](CCCCN)NC(=O)[C@H](CCCN=C(N)N)NC(=O)[C@H](C)NC(=O)[C@H](CO)NC(=O)[C@H](CCCCN)NC(=O)[C@H](CCCN=C(N)N)NC(=O)[C@H](C)NC(=O)CNC(=O)[C@@H](NC(=O)[C@H](Cc1ccccc1)NC(=O)CNC(=O)CNC(=O)[C@@H](N)Cc1ccccc1)[C@@H](C)O)C(=O)N[C@@H](C)C(=O)N[C@@H](CC(N)=O)C(=O)N[C@@H](CCC(N)=O)C(=O)O` [NOCICEPTIN], in data set [5], the metabolised at 1 h came out at 10%. Besides, the half-life in data set [3] was 13 min; in data set [7], 480 min. Besides, the Stability entry in data set [6] is on record as “Stable”.

With `C[C@H](NC(=O)CNC(=O)[C@@H](NC(=O)[C@H](Cc1ccccc1)NC(=O)CNC(=O)CNC(=O)[C@@H](N)Cc1ccccc1)[C@@H](C)O)C(=O)N[C@@H](CCCN=C(N)N)C(=O)N[C@@H](CCCCN)C(=O)N[C@@H](CO)C(=O)N[C@@H](C)C(=O)N[C@@H](CCCN=C(N)N)C(=O)N[C@@H](CCCCN)C(=O)N[C@@H](CCCN=C(N)N)C(=O)N[C@@H](CCCCN)C(=O)N[C@@H](CC(N)=O)C(=O)N[C@@H](CCC(N)=O)C(=O)O`, the metabolised at 1 h in data set [5] is less than 10%. Also, the half-life in data set [3] was 30 min; in data set [7] it was 600 min. The molecule also yielded an EC50 in data set [1] of 1.1 nM. Further, the Stability result in data set [6] is reported as “Stable”. The molecule also registered an IC50 in data set [2] of 0.21 nM.

As for H-FGGFTGARKSARKWANQ-OH, the EC50 in data set [1] was found to be 5.8 nM. The IC50 in data set [2] came out at 0.41 nM.

In the case of H-FGGFTGARKSARKRANQ-OH, the half-life in data set [3] came to 23 min. Moreover, the EC50 in data set [1] worked out at 4 nM. Besides, the IC50 in data set [2] worked out at 0.33 nM.

On to H-FGGFTGARKSARKVANQ-OH, for which a half-maximal response in data set [1] (EC50) required 15 nM. For the same molecule, the IC50 in data set [2] came out at 1.1 nM.

“H-FGGFTGARKRKRKLANQ-OH [listing 2 of 2 here]”: the EC50 in data set [1] turned out to be 86 nM. This molecule gave an IC50 in data set [2] of 0.94 nM.

In turn, H-FGGFTGARKSARKFANQ-OH registered an EC50 in data set [1] of 9 nM. In data set [2], this molecule came in with a half-maximal inhibitory concentration (IC50) of 1.1 nM.

In the case of H-FGGFTGARKSARKRRNQ-OH, it took 0.98 nM to reach a half-maximal effect in data set [1] (EC50). For the same molecule, in data set [2], the IC50 was found to be 0.27 nM.

With H-FGGFTGARKSARKKRNQ-OH, the EC50 in data set [1] was determined as 1.3 nM. This molecule also yielded an IC50 in data set [2] of 0.21 nM.

Molecule “H-FGGFTRKRKSARKLANQ-OH [listing 2 of 2 here]” gave an EC50 in data set [1] of 870 nM. Also, in data set [2], the IC50 stood at 13 nM.

Take H-FGGFTGARKSARKLRNQ-OH: in data set [1], the EC50 was 3.2 nM. The IC50 in data set [2] turned out to be 0.31 nM.

Molecule H-FGGFTGARKSARKKANQ-OH showed an EC50 in data set [1] of 4.1 nM. Further, the half-inhibitory concentration (IC50) in data set [2] turned out to be 0.41 nM.
